Data on 2 compounds can be found in article PMC4522399 (Journal of pharmaceutical sciences, 2015).

In one data set the target is T1, human NTCP (Homo sapiens, UniProt Q14973).
T1 sequence (Q14973 1-349): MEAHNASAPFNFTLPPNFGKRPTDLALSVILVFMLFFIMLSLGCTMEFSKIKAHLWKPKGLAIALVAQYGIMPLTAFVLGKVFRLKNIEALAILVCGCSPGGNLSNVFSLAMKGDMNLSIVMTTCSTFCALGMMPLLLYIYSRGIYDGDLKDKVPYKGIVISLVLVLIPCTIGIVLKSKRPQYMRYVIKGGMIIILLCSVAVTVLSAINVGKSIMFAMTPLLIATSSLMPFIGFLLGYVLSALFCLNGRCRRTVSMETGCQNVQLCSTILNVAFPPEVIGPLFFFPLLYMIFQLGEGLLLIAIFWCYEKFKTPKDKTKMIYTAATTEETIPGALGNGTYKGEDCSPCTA
The conditions noted are these: native substrate, comparison value; cited from earlier work.

The next data set is described as follows: in vivo. Conditions: male, Balb/c, mouse, iv, 0.08 mmol/kg.

The structures appear in SMILES notation.

With `C[C@H](CCC(=O)NCCS(=O)(=O)O)[C@H]1CC[C@H]2[C@@H]3[C@H](O)C[C@@H]4C[C@H](O)CC[C@]4(C)[C@H]3C[C@H](O)[C@]12C` [taurocholate], at human NTCP, the Kt is 22.7 µM.

As usually defined, the Tmax is the time at which the peak concentration occurs. Consider `NC(=O)c1ncn([C@@H]2O[C@H](CO)[C@@H](O)[C@H]2O)n1` [ribavirin, Ribavirin], for which the Tmax in “in vivo” was 30 min.
